This passage reports EC50 results from publication PMC5533763, “Two dopamine D2-like receptor genes from the silkworm (Bombyx mori) and their evolutionary history in metazoan” (Scientific Reports, 2017).

For the assay, the target named is T1, BmDop2R2 (Bombyx mori, UniProt A0A2D1QSC3).
T1 construct: full-length ORF (536 residues printed; 1596 bp ORF, which would give about 531; 7 TM) in pcDNA3.1(+), HindIII/NotI, transfected HEK-293 cells; no tag mentioned; chromosome 18, nscaf 2901; tandem paralogue of BmDop2R1 (440 residues, lacks TM I-II)
T1 sequence (A0A2D1QSC3 1-536): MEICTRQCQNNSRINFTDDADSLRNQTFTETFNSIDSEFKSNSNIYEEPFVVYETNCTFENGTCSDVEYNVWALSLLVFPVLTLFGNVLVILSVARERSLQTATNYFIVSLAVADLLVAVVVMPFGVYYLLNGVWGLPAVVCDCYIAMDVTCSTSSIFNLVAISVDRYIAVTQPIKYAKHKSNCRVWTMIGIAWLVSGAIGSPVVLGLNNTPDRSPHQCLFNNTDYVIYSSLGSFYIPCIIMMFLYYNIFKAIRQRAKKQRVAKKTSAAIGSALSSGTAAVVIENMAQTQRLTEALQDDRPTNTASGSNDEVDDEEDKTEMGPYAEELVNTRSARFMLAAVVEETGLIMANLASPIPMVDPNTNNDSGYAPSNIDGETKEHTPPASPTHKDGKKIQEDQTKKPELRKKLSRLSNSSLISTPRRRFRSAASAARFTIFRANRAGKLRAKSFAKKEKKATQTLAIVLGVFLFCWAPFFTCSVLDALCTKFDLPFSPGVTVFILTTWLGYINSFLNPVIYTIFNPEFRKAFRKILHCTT
Briefly: cAMP ELISA in transfected HEK-293 cells (inhibition of forskolin-stimulated cAMP). The assay is classed as cell-based.

Regarding `NCCc1ccc(O)c(O)c1` [dopamine], the half-maximal effective concentration (EC50) was 0.657 µM.
